The results in this text go back to ChEMBL document CHEMBL5241112, “Insights into the recent progress in the medicinal chemistry of pyranopyrimidine analogs” (RSC Med Chem, 2022).

The species named for one test is Capra hircus. The test is described as follows: Inhibition of goat lens AR at 100 uM incubated for 10 mins in presence of NADPH by spectroscopic analysis.
Test [1] is described as follows: Antioxidant activity assessed as DPPH radical scavenging activity incubated for 20 mins by spectrophotometric analysis. The class given is functional. Also on record: concentration or dose not given beside the values. A general note: Loss of DPPH colour is used to gauge radical scavenging.
The nature of test [2]: Antioxidant activity assessed as hydroxyl radical scavenging activity incubated for 5 mins by spectrophotometric analysis. It is filed as functional. Further details: concentration or dose not given beside the values.
For test [3], the system named is Staphylococcus aureus. The test is described as follows: Antimicrobial activity against Staphylococcus aureus assessed as diameter of inhibition zone at 1 mg/ml incubated for 48 hrs by agar disk diffusion method. It is filed as functional. To be noted: read-out: DIZ. (A growth-free zone around the sample is the usual read-out of agar diffusion tests.)
Another test concerns Bacillus cereus. Kind of test: Antimicrobial activity against Bacillus cereus assessed as diameter of inhibition zone at 1 mg/ml incubated for 48 hrs by agar disk diffusion method. It is filed as functional. To be noted: read-out: DIZ.
The test system of test [4] is Escherichia coli. The test is described as follows: Antimicrobial activity against Escherichia coli assessed as diameter of inhibition zone at 1 mg/ml incubated for 48 hrs by agar disk diffusion method. It is filed as functional. The note with it: read-out: DIZ.
In test [5] the test system is Klebsiella pneumoniae. The test is described as follows: Antimicrobial activity against Klebsiella pneumoniae assessed as diameter of inhibition zone at 1 mg/ml incubated for 48 hrs by agar disk diffusion method. It is filed as functional. To be noted: read-out: DIZ.
Test [6] concerns Pseudomonas aeruginosa. Kind of test: Antimicrobial activity against Pseudomonas aeruginosa assessed as diameter of inhibition zone at 1 mg/ml incubated for 48 hrs by agar disk diffusion method. It is filed as functional. The note with it: read-out: DIZ.
Test [7] has as its system Aspergillus niger. Kind of test: Antifungal activity against Aspergillus niger assessed as diameter of inhibition zone at 1 mg/ml incubated for 72 to 91 hrs by agar disk diffusion method. The class given is functional. The note with it: time 72-91 hrs, read-out: DIZ.
Another test deals with Penicillium chrysogenum. Kind of test: Antifungal activity against Penicillium chrysogenum assessed as diameter of inhibition zone at 1 mg/ml incubated for 72 to 91 hrs by agar disk diffusion method. The note with it: time 72-91 hrs, read-out: DIZ. The class given is functional.
For test [8], the system named is Staphylococcus aureus. The test is described as follows: Antibacterial activity against Staphylococcus aureus assessed as diameter of inhibition zone. It is filed as functional.
The test system of the next test is Bacillus subtilis. Kind of test: Antibacterial activity against Bacillus subtilis assessed as diameter of inhibition zone. It is filed as functional.
Test [9] deals with Escherichia coli. The test is described as follows: Antibacterial activity against Escherichia coli assessed as diameter of inhibition zone. It is filed as functional.
The test system of a further test is Salmonella typhimurium. Kind of test: Antibacterial activity against Salmonella typhimurium assessed as diameter of inhibition zone. It is filed as functional, Salmonella enterica subsp. enterica serovar Typhimurium.
Test [10] deals with Candida albicans. The test is described as follows: Antifungal activity against Candida albicans assessed as inhibition of fungal growth. The class given is functional.
Test [11] concerns Aspergillus niger. Kind of test: Antifungal activity against Aspergillus niger assessed as inhibition of fungal growth. The class given is functional.
Test [12] relates to Aspergillus flavus. The test is described as follows: Antifungal activity against Aspergillus flavus assessed as inhibition of fungal growth. It is filed as functional.
The next test addresses Urease (Canavalia ensiformis, UniProt P07374). Kind of test: Inhibition of jack bean urease by phenol red method.
The subject of test [13] is Staphylococcus aureus. The test is described as follows: Antibacterial activity against Staphylococcus aureus assessed as bacterial growth inhibition by broth microdilution method. It is filed as functional.
The test system of test [14] is Escherichia coli. The test is described as follows: Antibacterial activity against Escherichia coli assessed as bacterial growth inhibition by broth microdilution method. The class given is functional. Background: Dilution methods test growth across graded concentrations, often in twofold steps.
Test [15] deals with Klebsiella pneumoniae. The test is described as follows: Antibacterial activity against Klebsiella pneumoniae assessed as bacterial growth inhibition by broth microdilution method. The class given is functional.
Test [16] concerns Pseudomonas aeruginosa. Kind of test: Antibacterial activity against Pseudomonas aeruginosa assessed as bacterial growth inhibition by broth microdilution method. The class given is functional.
The test system of test [17] is Aspergillus flavus. The test is described as follows: Antifungal activity against Aspergillus flavus assessed as fungal growth inhibition by broth microdilution method. The class given is functional.
The subject of test [18] is Candida albicans. The test is described as follows: Antifungal activity against Candida albicans assessed as fungal growth inhibition by broth microdilution method. The class given is functional.

Values after ≈ are worked out from the molar mass of the structure shown.

Sequence of Urease (P07374 whole entry): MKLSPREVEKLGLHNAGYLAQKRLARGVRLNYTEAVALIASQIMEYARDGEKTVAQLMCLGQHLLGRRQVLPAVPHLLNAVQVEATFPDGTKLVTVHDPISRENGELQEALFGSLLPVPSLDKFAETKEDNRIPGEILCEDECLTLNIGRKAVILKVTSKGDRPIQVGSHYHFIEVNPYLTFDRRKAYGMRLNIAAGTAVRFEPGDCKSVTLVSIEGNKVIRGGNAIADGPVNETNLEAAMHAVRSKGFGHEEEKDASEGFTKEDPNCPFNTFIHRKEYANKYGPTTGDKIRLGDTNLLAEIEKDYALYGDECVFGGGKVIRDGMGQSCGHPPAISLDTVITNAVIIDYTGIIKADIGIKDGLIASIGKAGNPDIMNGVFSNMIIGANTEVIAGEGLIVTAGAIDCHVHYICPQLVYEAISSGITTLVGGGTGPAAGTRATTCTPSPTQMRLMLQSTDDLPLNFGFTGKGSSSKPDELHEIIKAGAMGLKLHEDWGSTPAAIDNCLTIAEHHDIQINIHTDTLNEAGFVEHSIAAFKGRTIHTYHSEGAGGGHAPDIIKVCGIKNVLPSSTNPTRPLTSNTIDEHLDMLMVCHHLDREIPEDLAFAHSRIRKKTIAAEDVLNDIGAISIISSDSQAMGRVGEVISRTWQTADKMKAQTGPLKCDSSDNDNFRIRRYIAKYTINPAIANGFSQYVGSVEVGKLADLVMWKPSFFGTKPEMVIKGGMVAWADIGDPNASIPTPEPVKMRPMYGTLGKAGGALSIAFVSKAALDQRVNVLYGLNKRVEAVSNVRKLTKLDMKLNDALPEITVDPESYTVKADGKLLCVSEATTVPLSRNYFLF

On to `COc1ccc(C2c3[nH]c(=O)[nH]c(=O)c3Oc3c2c(=O)oc2ccccc32)cc1` (centres undefined), for which, in the test filed under Capra hircus, the inhibition (as a rule, the percentage by which the read-out fell short of the control) is 44%. The Activity worked out at 59.1% in test [1] and 54.3% in test [2].

Regarding `O=c1[nH]c2c(c(=O)[nH]1)Oc1c(c(=O)oc3ccccc13)C2c1cccc([N+](=O)[O-])c1` (centres undefined), the inhibition in the test filed under Capra hircus stood at 59%. Besides, the Activity came out at 59.1% in test [1] and 54.3% in test [2].

On to `COC(=O)C1=C(N)Oc2[nH]c(=S)[nH]c(=O)c2C1c1ccc(OC)c(OC)c1` (centres undefined), for which the zone of inhibition at 1000 µg/mL was 13 mm with Staphylococcus aureus [3]; 15 mm in the test on Bacillus cereus; 16 mm with Escherichia coli [4]; 14 mm with Klebsiella pneumoniae [5]; 12 mm with Pseudomonas aeruginosa [6]; 0 mm with Aspergillus niger [7]. For the same compound, the zone of inhibition at 1000 µg/mL in the test on Penicillium chrysogenum was 12 mm.

Turning to `COC(=O)C1=C(N)Oc2[nH]c(=S)[nH]c(=O)c2C1c1ccc(C)cc1` (centres undefined), the zone of inhibition at 1000 µg/mL in the test on Staphylococcus aureus [3] was 15 mm; with Bacillus cereus, 12 mm; with Escherichia coli [4] it was 16 mm; with Klebsiella pneumoniae [5], 19 mm; with Pseudomonas aeruginosa [6], 21 mm; in the test on Aspergillus niger [7], 23 mm. In addition, in the test with Penicillium chrysogenum, the zone of inhibition at 1000 µg/mL was 23 mm.

Regarding `N#CC1=C(N)Oc2[nH]c(=O)[nH]c(=O)c2C1c1ccc(Cl)cc1` (centres undefined), the “diameter of the inhibition zone (DIZ)” value was 18 mm with Staphylococcus aureus [8], 16 mm with Bacillus subtilis, 16 mm in the test on Escherichia coli [9] and 20 mm in the test on Salmonella typhimurium. For the same compound, the minimal inhibitory concentration (MIC) (commonly the lowest concentration that inhibits growth of the organism) with Candida albicans [10] amounted to 125 µg/mL (≈ 395 µM); in the test with Aspergillus niger [11], 162 µg/mL (≈ 513 µM); in the test on Aspergillus flavus [12], 150 µg/mL (≈ 474 µM). Besides, at Urease, the IC50 (usually the concentration at which inhibition is half-maximal) was 49.7 µM.

For `CCO/C=N/C1=C(C#N)C(c2cc(OC)ccc2OC)c2c(n(C)c(=O)n(C)c2=O)O1` (centres undefined), the MIC in the test with Staphylococcus aureus [13] came to 6.25 µg/mL (≈ 14.7 µM); with Escherichia coli [14], 6.25 µg/mL (≈ 14.7 µM); with Klebsiella pneumoniae [15], 6.25 µg/mL (≈ 14.7 µM); in the test on Pseudomonas aeruginosa [16] it was 6.25 µg/mL (≈ 14.7 µM); with Aspergillus flavus [17], 3.12 µg/mL (≈ 7.32 µM); with Candida albicans [18], 3.12 µg/mL (≈ 7.32 µM).

In the case of `CCO/C=N/C1=C(C#N)C(c2cccc(OC)c2OC)c2c(n(C)c(=O)n(C)c2=O)O1` (centres undefined), the MIC in the test with Staphylococcus aureus [13] turned out to be 6.25 µg/mL (≈ 14.7 µM); in the test with Escherichia coli [14], 6.25 µg/mL (≈ 14.7 µM); in the test with Klebsiella pneumoniae [15], 6.25 µg/mL (≈ 14.7 µM); in the test on Pseudomonas aeruginosa [16], 6.25 µg/mL (≈ 14.7 µM); with Aspergillus flavus [17], 3.12 µg/mL (≈ 7.32 µM); with Candida albicans [18] it was 6.25 µg/mL (≈ 14.7 µM).

Take `O=c1[nH]c2c(c(=O)[nH]1)Oc1c(c(=O)oc3ccccc13)C2c1ccccc1Cl` (centres undefined): in the test listed under Capra hircus, the inhibition was 46%. Also, the Activity in test [1] was 72.4%; in test [2], 67.2%.

As for `COC(=O)C1=C(N)Oc2[nH]c(=S)[nH]c(=O)c2C1c1ccc([N+](=O)[O-])cc1` (centres undefined), the zone of inhibition at 1000 µg/mL with Staphylococcus aureus [3] was 17 mm; in the test with Bacillus cereus, 21 mm; in the test with Escherichia coli [4], 17 mm; in the test on Klebsiella pneumoniae [5], 17 mm; in the test on Pseudomonas aeruginosa [6], 20 mm; with Aspergillus niger [7], 23 mm. For the same compound, the zone of inhibition at 1000 µg/mL in the test on Penicillium chrysogenum is 12 mm.

With `CCO/C=N/C1=C(C#N)C(c2ccccc2F)c2c(n(C)c(=O)n(C)c2=O)O1` (centres undefined), the MIC in the test on Staphylococcus aureus [13], in the test on Escherichia coli [14], in the test on Klebsiella pneumoniae [15], with Pseudomonas aeruginosa [16], with Aspergillus flavus [17] and in the test with Candida albicans [18] was 6.25 µg/mL (≈ 16.3 µM) each time.

In the case of `COC(=O)C1=C(N)Oc2[nH]c(=S)[nH]c(=O)c2C1c1cccc(Cl)c1` (centres undefined), the zone of inhibition at 1000 µg/mL in the test on Staphylococcus aureus [3] was determined as 10 mm; in the test on Bacillus cereus, 12 mm; in the test with Escherichia coli [4], 8 mm; in the test with Klebsiella pneumoniae [5] it was 11 mm; with Pseudomonas aeruginosa [6], 9 mm; in the test with Aspergillus niger [7], 12 mm.

Take `O=c1c(O)c(-c2ccc(O)c(O)c2)oc2cc(O)cc(O)c12`: the inhibition in the test filed under Capra hircus was 92%.

For the compound `CCC1C(C#N)=C(N)Oc2[nH]c(=O)[nH]c(=O)c21` (centres undefined), the MIC in the test on Candida albicans [10] is 125 µg/mL (≈ 534 µM); in the test on Aspergillus niger [11], 162 µg/mL (≈ 694 µM); in the test on Aspergillus flavus [12], 150 µg/mL (≈ 640 µM).

As to `O=c1[nH]c2c(c(=O)[nH]1)Oc1c(c(=O)oc3ccccc13)C2c1ccc(Cl)cc1` (centres undefined), the inhibition in the test listed under Capra hircus was found to be 47%. In addition, the Activity turned out to be 71.5% in [1] and 68.3% in test [2].
